Source: patent publication US5861498A, “Nucleotides encoding immunophilin FKBP46 and fragments thereof” (Thomas Jefferson University, priority 1996, dated 1999)

Key:
FKBP46 [1] = biological target: T1, FKBP46 (Spodoptera frugiperda, UniProt Q26486); test: Peptidylprolyl cis-trans isomerase assay, inhibition by FK506; type: biochemical, Sf9 insect cell; settings: 5 μM FK506, 100 nM His-FKBP46, 15° C.; FIG. 3B curve B
T1 construct: Nuclear extract containing full-length FKBP46; made in house
T1 sequence (Q26486 1-412): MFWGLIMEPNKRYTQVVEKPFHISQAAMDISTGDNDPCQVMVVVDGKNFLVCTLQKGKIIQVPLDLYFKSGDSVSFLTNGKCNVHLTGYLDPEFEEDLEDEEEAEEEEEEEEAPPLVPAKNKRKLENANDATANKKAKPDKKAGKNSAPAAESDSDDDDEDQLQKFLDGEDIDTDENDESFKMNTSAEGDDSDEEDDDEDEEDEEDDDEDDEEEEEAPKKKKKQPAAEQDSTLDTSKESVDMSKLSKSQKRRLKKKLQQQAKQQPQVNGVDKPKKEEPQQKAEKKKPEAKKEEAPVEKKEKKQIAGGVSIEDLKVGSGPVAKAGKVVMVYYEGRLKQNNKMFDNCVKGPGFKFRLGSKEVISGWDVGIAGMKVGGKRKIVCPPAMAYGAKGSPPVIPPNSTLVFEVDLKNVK
Experimental: (§1) FIGS. 3A and 3B show FK506 binding and Peptidylprolyl cis-trans isomerase activities of FKBP46. In FIG. 3A, purified His-FKBP46 immobilized on Ni^2+ affinity resin was incubated with [^3 H]dihydro-FK506 in the presence […] or absence of cold FK506. The numbers under each column represent different amounts of nuclear extracts in microliters from Sf9 cells--expressing His-FKBP46 bound to separate Ni^2+ affinity resins. Nuclear extracts from wild type (WT) baculovirus infected Sf9 cells (10 μl) were bound to Ni^2+ affinity resin and used as a control. The amount of radioactivity associated with each resin sample is represented in disintegrations/min. In FIG. 3B, time-dependant release of p-nitroanilide by chymotrypsin from trans N-succinyl-Ala-Leu-Pro-Phe-p-nitroanilide measured by absorbance at 400 nm. […]
Peptidylprolyl cis-trans Isomerase Assay--Peptidylprolyl isomerase activity of FKBP46 was assayed as described previously (Harrison, R. K., and Stein, R. L. (1990) Biochemistry 29, 3813-3816 and Park, S. T., et al. (1992) J. Biol. Chem. 267, 3316-3324) with some modifications. […] The reaction was started by the addition of chymotrypsin (100 μg/ml final) (Sigma), and the release of p-nitroanilide by chymotrypsin was measured by recording the increase in absorbance at 400 nm using a Perkin Elmer λ 3B spectrophotometer connected to a chart recorder. […]

FKBP46 [2] = biological target: T1, FKBP46; test: [3H]Dihydro-FK506 binding assay, His-FKBP46 immobilized on Ni2+ affinity resin; set-up: species or system Sf9 insect cell
Experimental: as §1, with “nm. Curve A reflects the rate of release of p-nitroanilide in a reaction catalyzed by FKBP46. Curve B is the same as curve A but in the presence of 5 μM FK506. Curve C is the same but without FKBP46.” for “nm.”
(§2) The radioactivity associated with FKBP46 was measured by scintillation counting. […] Chymotrypsin hydrolyzes the trans form to generate p-nitroanilide, which can be quantitated spectrophotometrically at 400 nm. […] From these curves, the specific activity of FKBP46 was calculated using the first order rate constant (S^-1), and the molar concentration of FKBP46 to be about 7.8×10^6 […]. […]

[3] = test system: N-succinyl-Ala-Leu-Pro-Phe-p-nitroanilide; settings: literature value for comparison (ref 19); cited from earlier work
[4] = biological target: N-succinyl-Ala-Leu-Pro-Phe-p-nitroanilide
[5] = test system: N-succinyl-Ala-Leu-Pro-Phe-p-nitroanilide; test: Peptidylprolyl cis-trans isomerase assay, specific activity of the immunophilin; type: biochemical; settings: His-FKBP46 100 nM, substrate 75 μM, 15° C.
Experimental: Peptidylprolyl cis-trans Isomerase Assay--Peptidylprolyl isomerase activity of FKBP46 was assayed as described previously (Harrison, R. K., and Stein, R. L. (1990) Biochemistry 29, 3813-3816 and Park, S. T., et al. (1992) J. Biol. Chem. 267, 3316-3324) with some modifications. His-FKBP46 (100 nM final) was incubated with the peptide substrate N-succinyl-Ala-Leu-Pro-Phe-p-nitroanilide (75 μM final) (Bachem, Switzerland) at 15° C. for 15 min. The reaction was started by the addition of chymotrypsin (100 μg/ml final) (Sigma), and the release of p-nitroanilide by chymotrypsin was measured by recording the increase in absorbance at 400 nm using a Perkin Elmer λ 3B spectrophotometer connected to a chart recorder.
as §2, with “counting. […] Under these conditions, maximal binding was obtained when 10 μl of nuclear extracts containing recombinant His-FKBP46 were immobilized on Ni^2+ affinity resin (FIG. 3A, column 6).” for “counting.”

For C=CC[C@@H]1/C=C(\C)C[C@H](C)C[C@H](OC)[C@H]2O[C@@](O)(C(=O)C(=O)N3CCCC[C@H]3C(=O)O[C@H](/C(C)=C/[C@@H]3CC[C@@H](O)[C@H](OC)C3)[C@H](C)[C@@H](O)CC1=O)[C@H](C)C[C@@H]2OC [FK506], the inhibition at 5 µM (FKBP46 [1]) was ~50% and the “[3H]dihydro-FK506 binding to FKBP46 in the presence of excess cold FK506” value (FKBP46 [2]; 5000-fold excess of cold FK506, comparable with mock purified wild type extract, FIG. 3A columns 3, 5, 7) was “minimal”.

For [3H]CC([3H])C[C@@H]1/C=C(\C)C[C@H](C)C[C@H](OC)[C@H]2O[C@@](O)(C(=O)C(=O)N3CCCC[C@H]3C(=O)O[C@H](/C(C)=C/[C@@H]3CC[C@@H](O)[C@H](OC)C3)[C@H](C)[C@@H](O)CC1=O)[C@H](C)C[C@@H]2OC (stereo partly drawn) [[^3 H]dihydro-FK506], the “[3H]dihydro-FK506 binding to FKBP46 (radioactivity associated with resin)” value (FKBP46 [2]; 50 nM [3H]dihydro-FK506, on ice 18 h, absence of cold FK506, FIG. 3A) was “can bind specifically to FKBP46 in a dose-dependent manner”.

In the case of “hFKBP12: human FK binding protein FKBP12, comparison immunophilin”, the specific activity [3] is given as “about 4.3×10^6 s^-1. M^-1”.

With recombinant His-FKBP46 the peptidylprolyl cis-trans isomerase activity (chymotrypsin-coupled release of p-nitroanilide, absorbance at 400 nm) [4] was 7.8e+06 s⁻¹ M⁻¹.

B1: FKBP46: novel Sf9 insect cell nuclear immunophilin, SEQ ID NO:2; tested as recombinant His-tagged protein (protein)
chain: T1 sequence (Q26486 1-412)
modifications: His tag
notes: tested as recombinant His-tagged protein
In the case of B1, the “specific activity (first order rate constant / molar concentration)” value [5] is reported as “about 7.8×10^6 s^-1. M^-1”.
